Test results reported in PubChem BioAssay AID330 (DTP/NCI, 2004).
Several values for one entry are separate records, joined by “and”; a condition that tells them apart may be missing. Equal values may be shown once. Inconclusive results and toxic doses are left out. The calls were made as follows: active = survival T/C of 150% or more; inactive = T/C below 125% in these data.

System: P388 leukemia ip, CD2F1 mice, survival T/C
Test: NCI In Vivo Anticancer Drug Screen. Data for tumor model P388 Leukemia (intraperitoneal) in CD2F1 (CDF1) mice
Details: endpoint: median survival time, higher = longer survival
In short: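 Mice carrying the transplanted tumor received test compound or vehicle. Survival was recorded in each group, and the value is the treated-group measurement divided by that of the vehicle-treated control group.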

[1] = dose: 100.0 mg/kg/injection, schedule: Q01DX001 (ip), vehicle: saline with Tween-80
[2] = dose: 200.0 mg/kg/injection, schedule: Q01DX001 (ip), vehicle: saline with Tween-80
[3] = dose: 400.0 mg/kg/injection, schedule: Q01DX001 (ip), vehicle: saline with Tween-80
[4] = dose: 50.0 mg/kg/injection, schedule: Q01DX009 (ip), vehicle: saline with Tween-80
[5] = dose: 100.0 mg/kg/injection, schedule: Q01DX009 (ip), vehicle: saline with Tween-80
[6] = dose: 200.0 mg/kg/injection, schedule: Q01DX009 (ip), vehicle: saline with Tween-80

Measured: T/C

O=C1OC(=O)C2c3ccccc3C=CC12 (stereo not drawn)
inactive: dose: 25.0 mg/kg/injection, schedule: Q01DX001 (ip), vehicle: saline with Tween-80 98 % of control | dose: 50.0 mg/kg/injection, schedule: Q01DX001 (ip), vehicle: saline with Tween-80 98 % of control | [1] 104 % of control | [2] 120 % of control | [3] 113 % of control

CC(=O)OC1CC2C(C)(C)C(=O)C3OC3C2(C)C2CCC3(C)C(c4ccoc4)C(=O)C4OC43C12C (stereo not drawn)
inactive: dose: 0.38 mg/kg/injection, schedule: Q01DX005 (ip), vehicle: Klucel (hydroxypropylcellulose) (HPC) 100 % of control | dose: 0.75 mg/kg/injection, schedule: Q01DX005 (ip), vehicle: Klucel (hydroxypropylcellulose) (HPC) 100 % of control | dose: 1.5 mg/kg/injection, schedule: Q01DX005 (ip), vehicle: Klucel (hydroxypropylcellulose) (HPC) 100 % of control | dose: 3.0 mg/kg/injection, schedule: Q01DX005 (ip), vehicle: Klucel (hydroxypropylcellulose) (HPC) 100 % of control | dose: 6.0 mg/kg/injection, schedule: Q01DX005 (ip), vehicle: Klucel (hydroxypropylcellulose) (HPC) 106 % of control

NC1=C(O)C(=O)C(c2ccc3c(c2)OCO3)O1 (stereo not drawn)
inactive: dose: 60.0 mg/kg/injection, schedule: Q01DX005 (ip), vehicle: Klucel (hydroxypropylcellulose) (HPC) 92 % of control | dose: 120.0 mg/kg/injection, schedule: Q01DX005 (ip), vehicle: Klucel (hydroxypropylcellulose) (HPC) 95 % of control | dose: 240.0 mg/kg/injection, schedule: Q01DX005 (ip), vehicle: Klucel (hydroxypropylcellulose) (HPC) 91 % of control

c1ccc(-c2c3ccccc3c(-c3ccccc3)c3c(-c4ccccc4)c4ccccc4c(-c4ccccc4)c23)cc1
inactive: dose: 15.0 mg/kg/injection, schedule: Q01DX005 (ip), vehicle: saline with Tween-80 105 % of control | dose: 30.0 mg/kg/injection, schedule: Q01DX005 (ip), vehicle: saline with Tween-80 106 % of control | dose: 60.0 mg/kg/injection, schedule: Q01DX005 (ip), vehicle: saline with Tween-80 91 % of control and 94 % of control

C=CS(=O)(=NN1C(=O)c2ccccc2C1=O)c1ccc(C)cc1 (stereo not drawn)
inactive: dose: 6.25 mg/kg/injection, schedule: Q01DX001 (ip), vehicle: Klucel (hydroxypropylcellulose) (HPC) 95 % of control | dose: 12.5 mg/kg/injection, schedule: Q01DX001 (ip), vehicle: Klucel (hydroxypropylcellulose) (HPC) 98 % of control | dose: 25.0 mg/kg/injection, schedule: Q01DX001 (ip), vehicle: Klucel (hydroxypropylcellulose) (HPC) 104 % of control and 95 % of control | dose: 50.0 mg/kg/injection, schedule: Q01DX001 (ip), vehicle: Klucel (hydroxypropylcellulose) (HPC) 101 % of control and 104 % of control | dose: 100.0 mg/kg/injection, schedule: Q01DX001 (ip), vehicle: Klucel (hydroxypropylcellulose) (HPC) 106 % of control and 113 % of control

CCOC(=O)c1cc(NC(C)=O)cn1C
inactive: [4] 102 % of control | [5] 104 % of control | [6] 103 % of control

CC(C)(C)SSC(=S)C(c1ccccc1)c1ccccc1
inactive: dose: 50.0 mg/kg/injection, schedule: Q01DX005 (ip), vehicle: saline + Tween-80 + alcohol 105 % of control | dose: 100.0 mg/kg/injection, schedule: Q01DX005 (ip), vehicle: saline + Tween-80 + alcohol 107 % of control | dose: 200.0 mg/kg/injection, schedule: Q01DX005 (ip), vehicle: saline + Tween-80 + alcohol 96 % of control

Cc1cc(C)c(OP(=S)(Oc2c(C)cc(C)cc2C)Oc2c(C)cc(C)cc2C)c(C)c1
inactive: dose: 100.0 mg/kg/injection, schedule: Q04DX002 (ip), vehicle: Klucel (hydroxypropylcellulose) (HPC) 87 % of control | dose: 200.0 mg/kg/injection, schedule: Q04DX002 (ip), vehicle: Klucel (hydroxypropylcellulose) (HPC) 86 % of control

CCC(c1ccc(OC)cc1)C(NCC(=O)N/N=C/c1ccc(O)c(OC)c1)c1ccc(OC)cc1 (stereo not drawn)
inactive: [1] 107 % of control | [2] 107 % of control | [3] 101 % of control

CC1(C)COC(=O)C1=C(C#N)C#N
inactive: dose: 25.0 mg/kg/injection, schedule: Q04DX003 (ip), vehicle: saline 100 % of control | dose: 50.0 mg/kg/injection, schedule: Q04DX003 (ip), vehicle: saline 98 % of control | dose: 100.0 mg/kg/injection, schedule: Q04DX003 (ip), vehicle: saline 102 % of control

CSc1nnc2sc3cc(C)ccc3n12
inactive: dose: 50.0 mg/kg/injection, schedule: Q01DX009 (ip), vehicle: Klucel (hydroxypropylcellulose) (HPC) 102 % of control | dose: 100.0 mg/kg/injection, schedule: Q01DX009 (ip), vehicle: Klucel (hydroxypropylcellulose) (HPC) 103 % of control | dose: 200.0 mg/kg/injection, schedule: Q01DX009 (ip), vehicle: Klucel (hydroxypropylcellulose) (HPC) 102 % of control

O=[N+]([O-])c1cc2c(cc1S(=O)(=O)O)C1C(C3C2C2(Cl)C(Cl)=C(Cl)C3(Cl)C2(Cl)Cl)C2(Cl)C(Cl)=C(Cl)C1(Cl)C2(Cl)Cl (stereo not drawn)
inactive: dose: 50.0 mg/kg/injection, schedule: Q01DX009 (ip), vehicle: saline 101 % of control | dose: 100.0 mg/kg/injection, schedule: Q01DX009 (ip), vehicle: saline 98 % of control

Oc1ccc(O)c(/C=N/NC(=S)NC2CC3CC2C2C=CCC32)c1 (stereo not drawn)
inactive: dose: 12.5 mg/kg/injection, schedule: Q01DX009 (ip), vehicle: olive oil, sesame oil, peanut oil 90 % of control | dose: 25.0 mg/kg/injection, schedule: Q01DX009 (ip), vehicle: olive oil, sesame oil, peanut oil 102 % of control | dose: 50.0 mg/kg/injection, schedule: Q01DX009 (ip), vehicle: olive oil, sesame oil, peanut oil 102 % of control | dose: 100.0 mg/kg/injection, schedule: Q01DX009 (ip), vehicle: olive oil, sesame oil, peanut oil 98 % of control | dose: 200.0 mg/kg/injection, schedule: Q01DX009 (ip), vehicle: olive oil, sesame oil, peanut oil 105 % of control

CC1CN(C(=O)Nc2ccc(Cl)c(Cl)c2)CC(C)O1 (stereo not drawn)
inactive: dose: 6.25 mg/kg/injection, schedule: Q01DX009 (ip), vehicle: saline 100 % of control | dose: 12.5 mg/kg/injection, schedule: Q01DX009 (ip), vehicle: saline 98 % of control | dose: 25.0 mg/kg/injection, schedule: Q01DX009 (ip), vehicle: saline 86 % of control | [6] 100 % of control

COC(=O)C#CBr
inactive: dose: 3.13 mg/kg/injection, schedule: Q04DX003 (ip), vehicle: saline 100 % of control | dose: 6.25 mg/kg/injection, schedule: Q04DX003 (ip), vehicle: saline 100 % of control

CCN(CC)C(=O)OC1c2ccccc2C2CC1c1ccccc1C2O (stereo not drawn)
inactive: dose: 100.0 mg/kg/injection, schedule: Q04DX003 (ip), vehicle: Klucel (hydroxypropylcellulose) (HPC) 97 % of control | dose: 200.0 mg/kg/injection, schedule: Q04DX003 (ip), vehicle: Klucel (hydroxypropylcellulose) (HPC) 102 % of control | dose: 400.0 mg/kg/injection, schedule: Q04DX003 (ip), vehicle: Klucel (hydroxypropylcellulose) (HPC) 89 % of control

CN(C)CC1CCC2=C(C1=O)C(c1ccc(Cl)c(Cl)c1)C1=C(CCC(CN(C)C)C1=O)O2 (stereo not drawn)
inactive: dose: 60.0 mg/kg/injection, schedule: Q01DX005 (ip), vehicle: suspension in saline 100 % of control | dose: 120.0 mg/kg/injection, schedule: Q01DX005 (ip), vehicle: suspension in saline 106 % of control | dose: 240.0 mg/kg/injection, schedule: Q01DX005 (ip), vehicle: suspension in saline 99 % of control

O=C(NC(=O)Nc1ccc(Cl)cc1)NC(=O)c1ccccc1F
inactive: [4] 114 % of control | [5] 101 % of control | [6] 95 % of control

O=C1CCC([N+](=O)[O-])([N+](=O)[O-])CO1
inactive: [1] 111 % of control | [2] 106 % of control | [3] 113 % of control
